Test: Scavenging of cigarette smoke radicals in decalin, read out by DHR 6G fluorescence
Type: biochemical
Method: Tests were conducted to study the effectiveness of methanofullerene derivatives against radicals present in cigarette smoke (predominantly peroxyl radical). The cigarette smoke was bubbled through a glass frit into a solvent (decalin) in which radical scavengers were dissolved. The smoke then exited this solvent and was passed through a second flask, in which a fluorescent probe that fluoresces upon oxidation by radicals was used (Dihydrorhodamine 6G (DHR 6G), purchased from Molecular Probes). The variation of fluorescent signal corresponds directly to the radical content of the cigarette smoke, and thus a measure of the reduction of radicals by the radical scavenger is measured. Signals were measured every 10 seconds.
Tests were conducted to study the sensitivity of the test apparatus in Example 1 to varying concentrations of Vitamin E as a radical scavenger to scavenge radicals present in cigarette smoke (predominantly peroxyl radical). The cigarette smoke was bubbled through a cylindrical, coarse glass frit into a solvent (decalin) in which radical scavengers were dissolved. The smoke then exited this solvent and was passed through a second flask, in which a fluorescent probe that fluoresces upon oxidation by radicals was used (Dihydrorhodamine 6G (DHR 6G), purchased from Molecular Probes). The variation of fluorescent signal corresponds directly to the radical content of the cigarette smoke, and thus a measure of the reduction of radicals by the radical scavenger is measured. Signals were measured every 10 seconds.

Compound: COC(=O)CCCC1(c2ccccc2)C23C=Cc4cc5c6c7c4C21c1c2c4c(cc8ccc9cc(c6c6c9c8c4c6c17)C5)CC2=C3 (stereo not drawn) [PCBM, [6,6]-phenyl C61-butyric acid methyl ester]
- difference in fluorescence signal / radical scavenging efficiency versus Vitamin E (300 μM PCBM versus 300 μM Vitamin E): very large difference in radical scavenging efficiency
- reduction of radicals by the radical scavenger (fluorescent signal of DHR 6G) (scavenger dissolved in decalin, comparison with Vitamin E under identical conditions, FIG. 6A): scavenges significantly more of the radicals present in the cigarette smoke than Vitamin E

Compound: Vitamin E [reference compound]
- change of fluorescent signal on doubling the scavenger concentration (150 μM versus 300 μM in decalin, FIG. 6B): very small deflection

Source: patent US20050245606A1, “High-efficiency fullerene-based radical scavengers” (Nano-C, Inc., priority 2003, published 2005)
